Assay results taken from patent US10738007B2, “Amide compounds as kinase inhibitors, compositions and methods of treatment” (TRANSLATIONAL DRUG DEVELOPMENT, LLC, priority 2016, dated 2020).

Assays:
ROCK2 = ROCK2 (Homo sapiens (Human), UniProt O75116); experiment: ROCK2 kinase inhibition assay (peptide phosphorylation, LABCHIP 3000); assay type: biochemical; conditions: 7 μM ATP, 2.5 nM ROCK2, 3 hours at 25° C.
MV411 cell line = experiment: Cell viability assay ([…]-GLO), MV411; assay type: cell-based; conditions: Homo sapiens, MV4-11; MV411 (ITD-FLT3+), 72 hours treatment
Procedure: Cell viability in the presence of varying concentrations of the above listed compounds at different time points was used to assess cytotoxicity and the effect of the compounds on cell proliferation.
Cell viability was measured by the […] -GlO® cell viability assay from Promega (Madison, Wis.). The […] -GlO Luminescent Cell Viability Assay is a homogeneous method to determine the number of viable cells in culture based on quantitation of the ATP present, which signals the presence of metabolically active cells. Following treatment, […] -GlO® is added to treatment wells and incubated at 37° C. Luminescence values were measured at using a Molecular Devices Spectramax microplate reader.
Cells were grown to 70% confluency, trypsinized, counted, and seeded in 96 well flat-bottom plates at a final concentration of 2.5×10^3-5×10^3 cells/well (Day 0). Cells were allowed to incubate in growth media for 24 hours. Treatment with the test agents or standard agents began on Day 1 and continued for 72 hours. At the 72-hour time point, treatment containing media was removed.
For single agent and combination studies, data from each experiment was collected and expressed as % Cell Growth using the following calculation: % Cell Growth=(ftest/fvehicle)×100
Where ftest is the luminescence of the tested sample, and fvehicle is the luminescence of the vehicle in which the drug is dissolved. Dose response graphs and IC50 values were generated using Prism 6 software (GraphPad) using the following equation: Y=(Top−Bottom)/(1+10^((logIC50-X)−HillSlope))
Where X is the logarithm of the concentration and Y is the response. Y starts at the Bottom and goes to the Top with a sigmoid shape.
The experiments also evaluated the selectivity of the compounds for inhibiting growth of cancer cells carrying a mutation in the Flt3 gene. The MV411 cell line expresses the mutant allele of Flt3 with internal tandem duplications (ITD) of the gene.

Chain of ROCK2 (O75116 whole entry, species assumed): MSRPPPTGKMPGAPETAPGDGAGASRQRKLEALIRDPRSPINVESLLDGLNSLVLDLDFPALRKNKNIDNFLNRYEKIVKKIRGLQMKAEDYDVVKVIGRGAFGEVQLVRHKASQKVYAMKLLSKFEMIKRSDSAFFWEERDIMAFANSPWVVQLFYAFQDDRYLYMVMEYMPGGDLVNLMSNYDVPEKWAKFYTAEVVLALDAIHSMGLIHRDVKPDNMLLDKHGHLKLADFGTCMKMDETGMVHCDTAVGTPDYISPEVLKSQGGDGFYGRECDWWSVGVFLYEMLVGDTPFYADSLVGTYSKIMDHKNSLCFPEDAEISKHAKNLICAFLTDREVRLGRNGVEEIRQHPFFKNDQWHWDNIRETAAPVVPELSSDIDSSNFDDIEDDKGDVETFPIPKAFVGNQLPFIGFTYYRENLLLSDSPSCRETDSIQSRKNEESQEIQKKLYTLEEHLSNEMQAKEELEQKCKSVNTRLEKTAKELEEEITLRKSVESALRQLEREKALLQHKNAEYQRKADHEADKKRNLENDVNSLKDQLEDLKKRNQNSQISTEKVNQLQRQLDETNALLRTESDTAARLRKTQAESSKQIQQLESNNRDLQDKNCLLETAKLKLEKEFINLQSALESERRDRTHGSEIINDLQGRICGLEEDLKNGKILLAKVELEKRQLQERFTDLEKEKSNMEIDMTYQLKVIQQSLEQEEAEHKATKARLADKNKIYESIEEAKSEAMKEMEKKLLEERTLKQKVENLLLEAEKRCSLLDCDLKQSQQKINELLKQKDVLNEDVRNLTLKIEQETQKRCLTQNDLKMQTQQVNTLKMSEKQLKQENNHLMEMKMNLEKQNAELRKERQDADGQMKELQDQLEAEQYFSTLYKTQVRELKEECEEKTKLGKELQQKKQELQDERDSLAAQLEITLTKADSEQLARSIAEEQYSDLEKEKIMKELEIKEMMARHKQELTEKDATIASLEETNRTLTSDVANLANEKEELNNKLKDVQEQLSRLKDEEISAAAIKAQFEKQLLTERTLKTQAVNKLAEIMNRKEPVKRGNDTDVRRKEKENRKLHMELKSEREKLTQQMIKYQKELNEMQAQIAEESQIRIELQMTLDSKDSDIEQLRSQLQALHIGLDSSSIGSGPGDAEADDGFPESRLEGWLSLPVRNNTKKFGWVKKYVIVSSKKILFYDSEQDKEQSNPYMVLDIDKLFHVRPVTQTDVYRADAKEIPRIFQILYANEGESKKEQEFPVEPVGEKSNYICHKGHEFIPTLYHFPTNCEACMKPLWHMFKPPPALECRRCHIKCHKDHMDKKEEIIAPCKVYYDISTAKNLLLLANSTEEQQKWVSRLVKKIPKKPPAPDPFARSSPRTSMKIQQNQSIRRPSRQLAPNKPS

IC50 (ROCK2) [nM] | IC50 (MV411 cell line) [nM] | Compound
6.53 |  | CN1CCc2ccc(NC(=O)c3cccc([C@@H](CO)NC(=O)c4cccc(-c5ccncc5)c4)c3)cc2C1 [Compound 41]
0.38 |  | CN(C)Cc1cccc(CNC(=O)c2cccc([C@@H](CO)NC(=O)c3ccc(-c4ccncc4)cc3)c2)c1 [Compound 33]
0.41 | 3400 | C[C@@H](NC(=O)c1ccc(-c2ccncc2)cc1)c1cccc(C(=O)NCC2CCC(F)(F)CC2)c1 [Compound 40]
257 |  | CN(C(=O)c1ccc(-c2ccncc2)cc1)[C@H](CO)c1cccc(C(=O)NC2CCCC2)c1 [Compound 45]
 | 65100 | CN1CCOc2ccc(NC(=O)c3cccc([C@@H](CO)NC(=O)c4ccc(-c5ccncc5)cc4)c3)cc2C1 [Compound 29]
3 | 1700 | CN1CCc2ccc(NC(=O)c3cccc([C@@H](CO)NC(=O)c4ccc(-c5ccncc5)cn4)c3)cc2C1 [Compound 37]
104 |  | COc1ccc(C(=O)N[C@H](C)c2cccc(C(=O)NCC3CCN(C(C)C)CC3)c2)cc1C [Compound 68]
0.69 |  | COCCOc1cccc(CNC(=O)c2cccc([C@@H](CO)NC(=O)c3ccc(-c4ccncc4)cc3)c2)c1 [Compound 34]
20 |  | O=C(NC1CCCC1)c1cccc([C@@H](CO)NC(=O)c2cccc(-c3cn[nH]c3)c2)c1 [Compound 106]
9.3 |  | CN1CCc2ccc(NC(=O)c3cccc([C@@H](CO)NC(=O)c4ccc(-c5ccn[nH]5)cc4)c3)cc2C1 [Compound 43]
240 |  | CN1CCc2ccc(NC(=O)c3cccc([C@@H](CO)NC(=O)c4ccc(-c5cccnc5)cc4)c3)cc2C1 [Compound 44]
 | 18900 | COc1cccc(CN(CCN(C)C)C(=O)c2cccc([C@@H](CO)NC(=O)c3ccc(-c4ccncc4)cc3)c2)c1 [Compound 25]
1.3 |  | CN1Cc2ccc(NC(=O)c3cccc([C@@H](CO)NC(=O)c4ccc(-c5ccncc5)cc4)c3)cc2C1 [Compound 8]
0.23 |  | C[C@H](c1cccc(C(=O)NC2CCCC2)c1)N(CCN(C)C)C(=O)c1ccc(-c2ccncc2)cc1 [Compound 98]
56 | 20000 | CN(C(=O)c1cccc([C@@H](CO)NC(=O)c2ccc(-c3ccncc3)cc2)c1)C1CC1 [Compound 38]
72.6 |  | CN1CCc2ccc(NC(=O)c3cccc([C@@H](CO)NC(=O)c4cccc(-c5ccn[nH]5)c4)c3)cc2C1 [Compound 42]
